What was measured:
Test in all cases: biochemical
Format in all cases: biochemical
382 unique human kinases [1] = target: T1, 382 unique human kinases (Homo sapiens, UniProt O96017, I157T); details: CHK2 (I157T), 10 uM; for remaining activity at 10 µM: read-out: % Enzyme Activity (relative to DMSO controls)
T1 construct: purchased Reaction Biology (HotSpot contract assay)

382 unique human kinases [2] = target: T2, 382 unique human kinases (Homo sapiens, UniProt P15056, K601E); details: BRAF (K601E), compound at 10 uM, duplicate values; for remaining activity at 10 µM: read-out: % Enzyme Activity (relative to DMSO controls)
T2 construct: purchased Reaction Biology (HotSpot contract assay)
T2 sequence (P15056 whole entry K601E): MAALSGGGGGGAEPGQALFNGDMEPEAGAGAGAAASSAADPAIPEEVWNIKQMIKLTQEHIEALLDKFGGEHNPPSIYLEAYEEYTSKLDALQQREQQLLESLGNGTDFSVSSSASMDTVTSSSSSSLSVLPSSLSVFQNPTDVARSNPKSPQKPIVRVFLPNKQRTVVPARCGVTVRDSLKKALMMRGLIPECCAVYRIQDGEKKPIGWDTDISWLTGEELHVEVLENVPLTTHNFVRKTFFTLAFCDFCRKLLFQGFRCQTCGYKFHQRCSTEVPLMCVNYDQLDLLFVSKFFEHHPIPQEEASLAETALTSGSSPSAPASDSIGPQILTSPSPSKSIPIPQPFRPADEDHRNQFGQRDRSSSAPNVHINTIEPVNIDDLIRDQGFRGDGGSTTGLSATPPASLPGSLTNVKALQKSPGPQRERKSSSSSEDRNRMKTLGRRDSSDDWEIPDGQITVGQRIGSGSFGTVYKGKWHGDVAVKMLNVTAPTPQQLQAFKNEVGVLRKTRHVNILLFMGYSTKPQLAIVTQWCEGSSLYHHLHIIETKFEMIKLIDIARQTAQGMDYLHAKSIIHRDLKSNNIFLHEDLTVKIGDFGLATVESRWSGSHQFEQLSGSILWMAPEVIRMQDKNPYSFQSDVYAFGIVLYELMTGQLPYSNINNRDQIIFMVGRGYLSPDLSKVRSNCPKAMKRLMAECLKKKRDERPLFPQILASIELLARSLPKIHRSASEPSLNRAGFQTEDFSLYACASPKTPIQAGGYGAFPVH

382 unique human kinases [3] = target: T3, 382 unique human kinases (Homo sapiens, UniProt P22607, G697C); details: FGFR3 (G697C), 10 uM; for remaining activity at 10 µM: read-out: % Enzyme Activity (relative to DMSO controls)
T3 construct: purchased Reaction Biology (HotSpot contract assay)
T3 sequence (P22607 23-806 G697C): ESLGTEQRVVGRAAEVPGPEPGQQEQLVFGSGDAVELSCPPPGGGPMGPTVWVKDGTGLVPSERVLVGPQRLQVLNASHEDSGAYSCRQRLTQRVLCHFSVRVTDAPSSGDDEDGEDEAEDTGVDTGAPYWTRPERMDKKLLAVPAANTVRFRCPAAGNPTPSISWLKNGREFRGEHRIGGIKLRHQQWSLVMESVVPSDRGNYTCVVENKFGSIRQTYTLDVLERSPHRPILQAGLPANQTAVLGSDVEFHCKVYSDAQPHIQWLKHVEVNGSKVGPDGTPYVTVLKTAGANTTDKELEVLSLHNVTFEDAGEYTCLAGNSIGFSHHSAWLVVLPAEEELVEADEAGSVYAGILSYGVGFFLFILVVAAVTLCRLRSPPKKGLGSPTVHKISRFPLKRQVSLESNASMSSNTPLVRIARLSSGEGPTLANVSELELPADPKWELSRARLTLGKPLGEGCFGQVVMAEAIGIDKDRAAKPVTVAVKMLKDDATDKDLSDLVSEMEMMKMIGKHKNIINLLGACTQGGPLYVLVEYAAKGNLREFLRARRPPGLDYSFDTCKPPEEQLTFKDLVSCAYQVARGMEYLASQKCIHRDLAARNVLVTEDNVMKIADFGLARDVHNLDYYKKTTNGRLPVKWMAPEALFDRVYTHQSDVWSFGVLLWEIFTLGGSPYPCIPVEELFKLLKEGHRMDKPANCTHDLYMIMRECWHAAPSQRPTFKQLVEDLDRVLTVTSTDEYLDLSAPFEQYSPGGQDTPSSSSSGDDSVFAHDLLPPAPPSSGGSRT

382 unique human kinases [4] = target: T4, 382 unique human kinases (Homo sapiens, UniProt P30291); details: kinase WEE1, compound 10 uM; for remaining activity at 10 µM: read-out: % Enzyme Activity (relative to DMSO controls)
T4 construct: purchased Reaction Biology (HotSpot contract assay)
T4 sequence (P30291 whole entry): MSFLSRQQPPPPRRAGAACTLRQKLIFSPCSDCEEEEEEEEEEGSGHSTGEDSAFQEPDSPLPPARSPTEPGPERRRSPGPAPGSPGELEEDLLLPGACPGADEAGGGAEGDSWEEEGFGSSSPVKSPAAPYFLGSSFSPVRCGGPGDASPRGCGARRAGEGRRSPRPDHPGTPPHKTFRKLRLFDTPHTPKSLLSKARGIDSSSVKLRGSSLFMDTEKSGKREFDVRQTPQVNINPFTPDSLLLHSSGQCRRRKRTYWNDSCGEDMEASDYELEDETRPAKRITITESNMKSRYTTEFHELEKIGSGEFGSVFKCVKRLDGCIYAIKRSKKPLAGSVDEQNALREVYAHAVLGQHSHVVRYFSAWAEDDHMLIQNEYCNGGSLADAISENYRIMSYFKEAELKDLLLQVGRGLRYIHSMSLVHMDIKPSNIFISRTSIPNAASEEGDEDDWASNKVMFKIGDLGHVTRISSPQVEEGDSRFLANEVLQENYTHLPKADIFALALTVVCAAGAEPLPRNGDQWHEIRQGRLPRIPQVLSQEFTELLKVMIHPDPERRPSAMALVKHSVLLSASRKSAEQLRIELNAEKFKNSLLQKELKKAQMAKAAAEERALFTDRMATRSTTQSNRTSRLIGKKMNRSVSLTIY

382 unique human kinases [5] = target: T5, 382 unique human kinases (Homo sapiens, UniProt Q6XUX3); details: RIPK5, 10 uM; for remaining activity at 10 µM: read-out: % Enzyme Activity (relative to DMSO controls)
T5 construct: purchased Reaction Biology (HotSpot contract assay)
T5 sequence (Q6XUX3 1-929): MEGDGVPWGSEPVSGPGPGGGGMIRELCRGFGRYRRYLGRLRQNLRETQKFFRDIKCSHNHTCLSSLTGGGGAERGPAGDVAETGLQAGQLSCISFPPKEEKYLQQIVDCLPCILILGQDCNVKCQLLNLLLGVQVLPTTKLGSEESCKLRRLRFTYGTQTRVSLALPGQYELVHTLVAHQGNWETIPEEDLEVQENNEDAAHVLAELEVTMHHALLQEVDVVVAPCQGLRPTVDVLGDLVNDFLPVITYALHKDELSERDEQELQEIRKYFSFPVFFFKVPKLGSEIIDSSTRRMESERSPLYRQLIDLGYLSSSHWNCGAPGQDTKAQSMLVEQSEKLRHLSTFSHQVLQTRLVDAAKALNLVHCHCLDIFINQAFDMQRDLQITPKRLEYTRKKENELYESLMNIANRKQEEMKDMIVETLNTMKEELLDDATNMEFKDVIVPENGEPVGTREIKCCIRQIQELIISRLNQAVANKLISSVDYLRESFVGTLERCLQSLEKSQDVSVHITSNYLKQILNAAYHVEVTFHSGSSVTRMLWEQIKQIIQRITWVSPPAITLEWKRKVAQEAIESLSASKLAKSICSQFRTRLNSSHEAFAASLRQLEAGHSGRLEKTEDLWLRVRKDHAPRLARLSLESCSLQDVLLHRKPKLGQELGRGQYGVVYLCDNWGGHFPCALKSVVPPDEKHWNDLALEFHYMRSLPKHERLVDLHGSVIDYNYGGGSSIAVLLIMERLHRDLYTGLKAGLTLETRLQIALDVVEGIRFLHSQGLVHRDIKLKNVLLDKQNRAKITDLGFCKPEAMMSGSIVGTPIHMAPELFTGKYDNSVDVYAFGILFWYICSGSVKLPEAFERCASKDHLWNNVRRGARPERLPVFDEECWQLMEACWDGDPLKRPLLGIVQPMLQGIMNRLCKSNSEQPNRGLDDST

382 unique human kinases [6] = target: T6, 382 unique human kinases (Homo sapiens, UniProt Q8NG66); details: NEK11, compound at 10 uM, duplicate values; for remaining activity at 10 µM: read-out: % Enzyme Activity (relative to DMSO controls)
T6 construct: purchased Reaction Biology (HotSpot contract assay)
T6 sequence (Q8NG66 1-645): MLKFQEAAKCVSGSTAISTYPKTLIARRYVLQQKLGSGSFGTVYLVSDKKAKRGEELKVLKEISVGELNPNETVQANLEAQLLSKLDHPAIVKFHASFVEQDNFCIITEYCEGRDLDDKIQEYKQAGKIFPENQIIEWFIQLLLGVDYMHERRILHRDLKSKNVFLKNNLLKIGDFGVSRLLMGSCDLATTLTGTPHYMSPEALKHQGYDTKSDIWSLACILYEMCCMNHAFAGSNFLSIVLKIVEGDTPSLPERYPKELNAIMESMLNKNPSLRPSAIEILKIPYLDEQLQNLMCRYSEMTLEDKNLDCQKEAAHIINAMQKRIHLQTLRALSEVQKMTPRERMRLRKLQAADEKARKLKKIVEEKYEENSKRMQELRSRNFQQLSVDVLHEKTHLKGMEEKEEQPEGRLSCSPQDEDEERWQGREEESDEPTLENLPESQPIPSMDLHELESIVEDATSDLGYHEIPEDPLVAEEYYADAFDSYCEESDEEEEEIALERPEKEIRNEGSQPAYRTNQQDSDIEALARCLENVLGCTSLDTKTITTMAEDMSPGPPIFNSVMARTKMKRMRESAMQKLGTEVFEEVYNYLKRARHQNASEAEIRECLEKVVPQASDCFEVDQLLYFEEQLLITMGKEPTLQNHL

382 unique human kinases [7] = target: T7, 382 unique human kinases (Homo sapiens, UniProt Q96PN8); details: kinase TSSK3/STK22C, compound 10 uM; for remaining activity at 10 µM: read-out: % Enzyme Activity (relative to DMSO controls)
T7 construct: purchased Reaction Biology (HotSpot contract assay)
T7 sequence (Q96PN8 1-268): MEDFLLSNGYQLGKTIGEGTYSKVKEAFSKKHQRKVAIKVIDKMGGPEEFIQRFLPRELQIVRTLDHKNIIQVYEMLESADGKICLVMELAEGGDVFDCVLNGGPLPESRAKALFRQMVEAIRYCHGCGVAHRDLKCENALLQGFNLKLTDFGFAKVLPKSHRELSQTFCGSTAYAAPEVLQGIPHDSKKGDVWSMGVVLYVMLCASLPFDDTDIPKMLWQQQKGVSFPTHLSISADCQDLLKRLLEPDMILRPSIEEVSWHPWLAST

382 unique human kinases [8] = target: T8, 382 unique human kinases (Homo sapiens, UniProt Q05513); details: PKCzeta, 10 uM; for remaining activity at 10 µM: read-out: % Enzyme Activity (relative to DMSO controls)
T8 construct: purchased Reaction Biology (HotSpot contract assay)
T8 sequence (Q05513 1-592): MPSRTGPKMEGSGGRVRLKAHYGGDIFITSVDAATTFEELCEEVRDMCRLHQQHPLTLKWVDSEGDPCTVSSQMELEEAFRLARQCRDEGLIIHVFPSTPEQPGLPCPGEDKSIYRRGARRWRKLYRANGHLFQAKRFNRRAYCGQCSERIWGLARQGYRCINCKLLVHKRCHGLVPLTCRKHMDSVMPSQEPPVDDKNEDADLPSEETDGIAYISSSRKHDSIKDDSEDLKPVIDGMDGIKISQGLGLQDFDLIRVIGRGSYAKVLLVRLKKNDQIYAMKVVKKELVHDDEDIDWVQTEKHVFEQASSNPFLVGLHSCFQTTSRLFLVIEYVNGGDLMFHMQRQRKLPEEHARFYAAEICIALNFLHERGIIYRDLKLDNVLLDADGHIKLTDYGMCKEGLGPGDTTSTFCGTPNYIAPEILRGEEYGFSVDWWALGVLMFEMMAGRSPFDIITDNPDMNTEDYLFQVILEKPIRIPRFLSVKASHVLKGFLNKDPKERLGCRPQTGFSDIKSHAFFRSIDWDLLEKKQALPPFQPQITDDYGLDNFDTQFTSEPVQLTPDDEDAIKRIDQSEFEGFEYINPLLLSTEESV

T1 sequence (O96017 whole entry I157T): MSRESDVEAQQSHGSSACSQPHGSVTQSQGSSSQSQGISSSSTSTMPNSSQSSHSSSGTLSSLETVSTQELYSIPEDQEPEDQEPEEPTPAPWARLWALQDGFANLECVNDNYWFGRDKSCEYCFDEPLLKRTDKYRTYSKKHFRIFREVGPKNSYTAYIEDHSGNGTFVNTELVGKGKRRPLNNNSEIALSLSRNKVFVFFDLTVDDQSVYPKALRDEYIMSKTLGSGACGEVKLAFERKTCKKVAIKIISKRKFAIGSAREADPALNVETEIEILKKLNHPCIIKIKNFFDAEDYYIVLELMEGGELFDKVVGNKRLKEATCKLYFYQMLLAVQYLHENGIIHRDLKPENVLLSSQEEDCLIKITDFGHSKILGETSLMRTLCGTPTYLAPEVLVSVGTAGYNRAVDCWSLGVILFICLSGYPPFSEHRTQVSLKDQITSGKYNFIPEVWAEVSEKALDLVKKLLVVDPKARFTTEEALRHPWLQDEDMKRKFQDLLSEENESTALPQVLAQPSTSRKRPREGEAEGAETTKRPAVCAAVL

Row | Structure (SMILES) | remaining activity at 10 µM (382 unique human kinases [1]) [%] | remaining activity at 10 µM (382 unique human kinases [2]) [%] | remaining activity at 10 µM (382 unique human kinases [3]) [%] | remaining activity at 10 µM (382 unique human kinases [4]) [%] | remaining activity at 10 µM (382 unique human kinases [5]) [%] | remaining activity at 10 µM (382 unique human kinases [6]) [%] | remaining activity at 10 µM (382 unique human kinases [7]) [%] | remaining activity at 10 µM (382 unique human kinases [8]) [%] | % Enzyme Activity (relative to DMSO controls) (382 unique human kinases [1]) [%] | % Enzyme Activity (relative to DMSO controls) (382 unique human kinases [2]) [%] | % Enzyme Activity (relative to DMSO controls) (382 unique human kinases [3]) [%] | % Enzyme Activity (relative to DMSO controls) (382 unique human kinases [4]) [%] | % Enzyme Activity (relative to DMSO controls) (382 unique human kinases [5]) [%] | % Enzyme Activity (relative to DMSO controls) (382 unique human kinases [6]) [%] | % Enzyme Activity (relative to DMSO controls) (382 unique human kinases [7]) [%] | % Enzyme Activity (relative to DMSO controls) (382 unique human kinases [8]) [%]
1 | CC(C)c1cc(-c2n[nH]c(=O)n2-c2ccc3c(ccn3C)c2)c(O)cc1O [Ganetespib (STA9090)] | 76.6 | 107 | 61.9 | 87.2 | 95.4 | 117 | 93.1 | – | – | – | – | – | – | – | – | –
2 | CC(C)c1cc(-c2n[nH]c(=O)n2-c2ccc3c(ccn3C)c2)c(O)cc1O [Ganetespib] | – | – | – | – | – | – | – | 92.3 | – | – | – | – | – | – | – | –
3 | CCNC(=O)c1noc(-c2cc(C(C)C)c(O)cc2O)c1-c1ccc(CN2CCOCC2)cc1 [Luminespib (AUY-922)] | 102 | 101 | 104 | 116 | 79.8 | 102 | 147 | – | 100.31 | 100.38 | 102.74 | 114.11 | 77.60 | 100.52 | 144.69 | –
4 | CCNC(=O)c1noc(-c2cc(C(C)C)c(O)cc2O)c1-c1ccc(CN2CCOCC2)cc1 [Luminespib] | – | – | – | – | – | – | – | 102 | – | – | – | – | – | – | – | 101.96

Reference: PMC8550792, “Evolution of kinase polypharmacology across HSP90 drug discovery” (Cell Chemical Biology, 2021)
